Data as given in patent US9238022B2, “Xanthanodien for the treatment of cancer” (priority 2010, dated 2016).
“Also recorded” adds a separate entry of the source.

What was measured:
[1] = system: ovarian cancer cells JC, NIH:OVCAR-3, SKOV-3; test: In vitro cytotoxicity test (Alamar blue, microscopy) on ovarian cancer cells; format: cell-based; conditions: for cytotoxicity towards ovarian cancer cells (in words): 1, 5 and 10 μg/mL
Method: (§1) Cells used in the assays were an ovarian cell line, JC (van Haaften-Day et al. 1983. Cancer Research 43: 3725-3731), OVCAR-3 and SKOV-3, The American Type Culture Collection (ATCC), a melanoma line (MM-An, Byers et al. 1991. Am J Path 139, No 2: 423-435) and normal human diploid fibroblasts primary cultures (Brookes et al. 2002 The EMBO Journal Vol. 21, No. 12: 2936-2945).
(§2) In vitro cytotoxicity tests were performed using a non-fluorescent substrate, Alamar blue (BioSource, Invitrogen, UK) as described by Page et al. (Page B, Page M and Noel C. 1993. International Journal of Oncology 3: 473-476).
(§3) Ovarian cancer cells (1×10^4 or 5×10^4) were seeded in 24-well plates (Costar, USA) and grown in RPMI-1640, supplemented with 6 mM L-glutamine, 10% fetal calf serum (FCS) (Gibco, Invitrogen, UK) and penicillin (100 units/mL) and streptomycin (100 μg/mL), while melanoma cells and normal fibroblasts were grown in Dulbecco's modified Eagle medium (DMEM), also supplemented with L-glutamine and FCS. The cultures were maintained in a humidified atmosphere of 5% CO2 at 37° C.
(§4) The in exponential growth cultures (in triplicates) were treated with the compound, dissolved in dimethyl sulfoxide (DMSO) and added at final concentrations of 1, 5, and 10 μg/mL. In 2 mL medium/well 10% Alamar blue was added and 100 μl of the supernatant of the 24-well plates after 24, 48 and 72 hrs were pipetted into 96-well plates (Costar, USA). Cell viability was measured with a 96-well plate reader (Molecular Devices Ltd, UK).
(§5) Ovarian cancer cells JC, NIH:OVCAR-3, Skov-3, fibroblasts as well as melanoma cancer cells MM-AN were used for cytotoxicity tests with EPD and EPA. The final concentrations of EPD and EPA added to the growth medium were 1, 5 and 10 μg/ml per well.
(§6) Photographs were taken from the ovarian cancer cell line JC, the melanoma cell line MM-An and normal fibroblasts in 24-well plates using a Leica inverted microscope at a magnification of 100 times. Concentrations of EPD ranged 1-10 μg/mL and the experiments were terminated at 48 and 72 hrs (FIGS. 6-8).
Cell viability was measured by adding 10% Alamar Blue (BioSource, Invitrogen, UK) to ovarian cancer cell cultures (OVCAR-3, SKOV-3) to 1, 5 and 10 μg/ml of EPD and to the control cultures (as described above). After 24, 48 and 72 hours incubation, 100 μl of culture supernatant was taken and cell viability measured with a plate reader (Molecular Devices, Ltd, UK) according to the manufacturer's instructions. The results are depicted in FIGS. 3-5 and confirm that the phenomenon observed in the photographs of FIGS. 6-8 is cell death.

NIH:OVCAR-3 cells = test: Ovarian cancer animal model (i.p. OVCAR-3 ascites); format: in vivo, Balb/c nu/nu mice
Method: In order to assess the efficacy of EPD in the treatment of ovarian cancer, in vivo experiments were performed with Balb/c nu/nu mice (Charles River Laboratories, France). As a model system of advanced ovarian cancer, a total of 20 Balb/c nu/nu mice were inoculated intra-peritoneally (i.p.) with 1.0×10^7 cells NIH:OVCAR-3 cells (American Type Culture Collection (ATCC number: HTB-161™)/200 μl PBS. NIH:OVCAR-3 is an appropriate model system in which to study drug resistance in ovarian cancer. Upon inoculation into the abdominal cavity ascites were formed at first in only 5 mice. One mouse after having developed a large abdomen was sacrificed and the ascites cells were inoculated into the 15 mice which had not developed ascites. Another mouse was sacrificed to freeze down the cells. […] The 15 mice without ascites were devided into 3 groups of 5 mice. One group served as control, one group received the standard chemotherapy cisplatin and one group received the test drug EPD.
Drugs were given 200 μl/mouse i.p. in order to assess their efficacy as anti-tumor drug. The weight of mice when drug-treated varied between 22 and 26 gram, all with a swollen abdomen. Reduction of the swollen abdomen of the mice (resulting from the killing of the OVCAR-3 cells) was then studied.
Eremophila-1(10)-11(13)-dien-12,8β-olide (EPD) was administered at 20 mg/kg body weight. EPD was isolated from Calomeria amaranthoides as described in Example 1 above. The drug was inoculated twice a week into the abdominal cavity of the mice.

[2] = system: normal human diploid fibroblasts; test: In vitro cytotoxicity test on normal cells; format: cell-based
Method: The cultures were maintained in a humidified atmosphere of 5% CO2 at 37° C.
as §4, §5, §6

P388 Leukemia = conditions: NCI screening data 1972; cited from earlier work
melanoma cells MM-AN = test: In vitro cytotoxicity test on melanoma cells; format: cell-based
Method: as §1, §2, §3, §4, §5, §6

leukocytes = conditions: Dupuis & Brisson 1976; cited from earlier work
[3] = 20 mg/kg i.p. twice a week for 6 weeks

## N.N.[Cl][Pt][Cl] [cisplatin, reference compound]
[1]; comparison of crude extract, cisplatin and docetaxol, concentration of the drugs not given
  killing of cancer cells, parallel comparison: all killed; also recorded: completely kill
NIH:OVCAR-3 cells; 5 mg/kg i.p. once a week for 4 weeks
  swelling of the abdomen (ascites): reduced during treatment
NIH:OVCAR-3 cells; 5 mg/kg i.p. once a week, 4 weeks
  general health, side effects: got very sick; also recorded: had to be euthanized

## CC(=O)O[C@@]12CO[C@@H]1C[C@H](O)[C@@]1(C)C(=O)[C@H](O)C3=C(C)[C@@H](OC(=O)[C@H](O)[C@@H](NC(=O)OC(C)(C)C)c4ccccc4)C[C@@](O)([C@@H](OC(=O)c4ccccc4)[C@H]21)C3(C)C [docetaxol, reference compound]
[2]; concentration of the drugs not given
  killing of normal cells, parallel comparison: completely kill

## C=C1C(=O)O[C@H]2CC3=CCC[C@H](C)[C@@]3(C)C[C@@H]12 [napthofuranone, (3aβ,4aα,5α,9aβ)-3a,4,4a,5,6,7,9,9a-octahydro 4a,5-dimethyl-3-methylene naphtho[2,3-b]furan-2(3H)-2-one]
P388 Leukemia
  in vivo anti-tumor activity: no clear results

## C=C(C(=O)O)[C@@H]1CCC2=CCC[C@H](C)[C@@]2(C)C1 [EPA, eremophila-1(10),11(13)-dien-12-oic acid]
[1]
  cytotoxicity towards ovarian cancer cells (in words): non-cytotoxic; also recorded: no cytotoxicity; also recorded: did not show cytotoxic effects
Melanoma cells MM-AN; 1, 5 and 10 μg/mL
  cytotoxicity towards melanoma cells (in words): no cytotoxicity
[2]; 1, 5 and 10 μg/mL
  cytotoxicity towards normal fibroblasts (in words): no cytotoxicity

## C=C1C(=O)O[C@@H]2CC3=CCC[C@H](C)[C@@]3(C)C[C@H]12 [EPD, eremophila-1(10)-11(13)-dien-12,8β-olide]
[1]; 1 μg/mL, in vitro
  effect on cancer cells at 1 μg/mL: many cancer cells were floating in the wells; also recorded: great cell loss was already seen; also recorded: substantial killing of cancer cells
[1]; 5 μg/mL, 48 hours
  cell death of cancer cells at 5 μg/mL: Cell death was observed in the majority of cancer cells; also recorded: killed
[1]; 10 μg/mL, 48 hours
  cell death of cancer cells at 10 μg/mL: All cells were dead
[1]
  cytotoxicity towards ovarian cancer cells (in words): significant activity; also recorded: very clear cytotoxic effects
[1]; in vitro, compared with normal cells
  selectivity, cancer cells over normal cells: selectively kills cancer cells over normal cells
Melanoma cells MM-AN; 5 μg/mL, 48 hours, MM-An
  cell death of cancer cells at 5 μg/mL: Cell death was observed in the majority of cancer cells
Melanoma cells MM-AN; 10 μg/mL, 48 hours, MM-An
  cell death of cancer cells at 10 μg/mL: All cells were dead
[2]; 5 μg/mL, 48 hours
  effect on normal cells at 5 μg/mL: not or little affected; also recorded: largely unaffected; also recorded: little affected
[2]; 10 μg/mL, 48 hours
  effect on normal fibroblasts at 10 μg/mL: more evidence of cell death
NIH:OVCAR-3 cells; [3]
  general health, side effects: looked very healthy; also recorded: did not show any signs of side effects
  swelling of the abdomen (ascites): reduced during treatment; also recorded: remission of cancer; also recorded: the ascites disappeared
NIH:OVCAR-3 cells; i.p. twice a week for 6 weeks
  survival: all the animals survived the study
NIH:OVCAR-3 cells; three mice kept one month without further treatment after 6 weeks of treatment
  return of ascites after end of treatment: In one mouse the ascites returned, two mice did not develop ascites again

## C=C1C(=O)O[C@@H]2C[C@@]3(C)CCC[C@H](C)C3=C[C@H]12 [alantolactone]
leukocytes
  toxicity to leukocytes: toxic
